This passage reports melting point results from US6436954B1, “Benzoquinolizidine and benzoindolizidine derivatives and therapeutic uses thereof” (priority 1998, dated 2002).

With `O[C@@H]1c2ccccc2CN2CCC[C@@H]12` (relative stereo), the melting point (usually the temperature of the solid-liquid transition) lay in the range of 131 to 133 °C.
